Measurements reported in US12108762B2, “Methods of controlling crop pests using aromatic amide insect repellents, methods of making aromatic amide insect repellents, and novel aromatic amide insect repellents” (priority 2020, dated 2024).
“Also recorded” adds a separate entry of the source.

Assays:
Assay type in all cases: in vivo
Drosophila melanogaster [1] = assay: Two-choice trap olfactory assay; conditions: for interaction with control trap in comparison with repellent-treated trap: low participation; for trap preference (control trap versus repellent-treated trap): DMSO control vs 25 μl of 25% by weight in DMSO
Protocol: (§1) The D. melanogaster assays served as a model for SWD repellency. Forty different aromatic amides were studied at a 25% concentration by weight in DMSO, and the fruit fly chemosensory behaviors in response thereto were characterized. […]
(§2) Flies were monitored throughout their life cycle. Five-day-old flies (10 male and 10 females) were selected per assay, and starved for a predetermined length of time (e.g., 20 hours). After starvation, two different assays were used to study the olfactory related responses.
FIG. 7B is a diagram of a 2-choice trap olfactory assay. Two ACV traps 110a-b were prepared as above, in a cylinder 150 from upturned 1.5 ml micro-centrifuge tubes with the tapered end trimmed away, and a pipette 120a-b inserted into the inverted micro-centrifuge tube. In the cylinder 150, one trap 110a was treated with 25 μl of DMSO (as a control) on the filter paper 135, and the other trap 110b with the 25 μl of the 25% by weight solution of the test compound in DMSO applied to the filter paper 130. 125 μl of 10% ACV, diluted with water, was placed in the bottom of the traps 110a-b. Both traps contained filter paper as prepared in the one-trap assay. All trials were screened for 24 hours, and the number of flies 105 in each trap was counted. Positions of the traps (i.e., left or right, relative to the location of the chamber 150 in the room) were randomized. The number of flies 105 in each trap 110a and 110b were counted and recorded at 4, 6 and 24 hours.
(§3) The different assays assigned results as follows. For the single-choice olfactory assay, the numbers of flies were counted according to (1) those that entered the trap, (2) those that stayed outside the trap and lived, and (3) those that died outside the trap. For the two-choice olfactory assay, the numbers of flies were counted according to (1) those that entered the control trap, (2) those that entered the trap containing the repellent, (3) those that stayed outside of both traps and lived, and (4) those that died outside the traps. For the gustatory assay, the numbers of flies were counted according to those that had (1) a red-colored abdomen, (2) a blue-colored abdomen, (3) a purple abdomen, and (4) no added color to their abdomen. A nonparametric Mann-Whitney U test was used to compare the statistical differences between assays using DEET and the same assays using one of the present repellents for all trials.

Drosophila melanogaster [2] = assay: One-choice (single-trap) olfactory trap assay; conditions: for repellency compared with DEET, one-choice trap assay: 25 μl of 25% by weight in DMSO on filter paper, 10% ACV attractant, 6 hours (FIG. 10) and 24 hours (FIG. 13); for fly death during the 6-hour screen: starved flies
Protocol: as §1, §2
FIG. 7A is a diagram of a single-trap olfactory assay. Flies 105 were placed in a cylindrical chamber 100 containing a trap 110. The trap 110 was fashioned from an upturned 1.5 ml micro-centrifuge tube where the tapered end was trimmed away. A pipette tip 120 was cut to form a funnel and inserted into the bottom of the inverted micro-centrifuge tube 110. Then, filter paper 130 was placed between the pipette tip 120 and tip of micro-centrifuge tube 110. The pipette tip 120 was placed so that entering flies could not make physical contact with the filter paper 130. The filter paper 130 was placed in this manner so that when the filter paper 130 was treated with the repellent solution, the flies would only be able to smell at a distance and should be repelled even in the presence of an attractant.
A 25 μl sample of test compound at 25% concentration was applied to the filter paper 130 in order to provide the odor source. At the bottom of the trap 110, 125 μl of 10% apple cider vinegar (ACV) was placed as an attractant. Trials were conducted for 24 hours to visualize the number of flies 105 entering the trap 110. Typically, flies that entered the trap 110 contacted the liquid ACV and died in the ACV. Flies were counted and recorded at 4, 6, and 24 hours. No control other than DEET was used for this experiment, because it was a single trap, comparing the number of flies 105 repelled by the repellent versus the number of flies 105 interacting with the attractant (ACV).
as §3

Drosophila melanogaster [3] = assay: Gustatory assay (fructose preference, food colouring); conditions: 1 hour feeding; for gustatory repellency (preference for repellent-treated sugar versus control-treated sugar): 35 mM fructose with 5 mM repellent vs 25 mM fructose control; for gustatory repellency compared with DEET: 5 mM repellent, FIG. 12
Protocol: The D. melanogaster assays served as a model for SWD repellency. Forty different aromatic amides were studied at a 25% concentration by weight in DMSO, and the fruit fly chemosensory behaviors in response thereto were characterized.
In the gustatory assay, the consumption of sugar (from a solution in a gel) treated at varying concentrations of the present repellent compounds was compared to the consumption of control-treated sugar. For the habituation assay, flies were tested over repeated exposures to the present repellent compounds to measure changes in behavioral preference for the compounds.
Flies were continuously monitored throughout their lifecycle. In doing so, 3- to 5-day-old flies (half male and half female) were selected and starved for 20 hours. Flies were then introduced to 96-well plates 200 with wells 210a-220vv that were alternately filled with two different sugar solutions, as shown in FIG. 8. Wells 210a-210vv were filled with 25 mM fructose in DMSO (as a control), colored with red food coloring, and wells 220a-220vv were filled with […] fructose mixed with 5 mM of the present insect repellent in DMSO, colored with blue food coloring. The food coloring is nontoxic, so it has no effect on preference. Using an established protocol (Montell, C., et al., Avoiding DEET through insect gustatory receptors. NIH Neuron 67(4), 2010, 555-561: doi:10.1016/j.neuron.2010.07.006), flies selected between the fructose control or fructose mixed with aromatic amide repellent. Tests were performed on at least one group of about 50 males and at least one group of 50 females. Flies were placed in the dark for 1 hour, then the food coloring in the fly's abdomen was visualized under a compound microscope. The color of the abdomen was noted, along with the intensity, providing a quantitative idea of how much sugar each fly consumed, and from which type of well (control vs. mixed with repellent). The flies were fed for one hour so that the amount of food coloring was significant enough to be visible. A preference index was made to define the amount of food coloring consumed and assess the degree of repellent avoidance via gustatory processes.
as §3

[4] = one-choice trap, 25% concentration, 6 hours
[5] = one-choice trap, 25% concentration

Compound | participation in choosing either trap (Drosophila melanogaster [1]; 25% by weight, 6 hours) | trap preference (control trap versus repellent-treated trap) (Drosophila melanogaster [1]; 6 hours) | repellency compared with DEET, one-choice trap assay (Drosophila melanogaster [2]) | fly death during the 6-hour screen (Drosophila melanogaster [2]; [4]) | also measured
O=C(c1ccccc1F)N1CCCC1 [Compound 2oB] | less overall participation | preference for the control trap | – | – | interaction with control trap in comparison with repellent-treated trap (Drosophila melanogaster [1]; 25% by weight): more flies interacted with the control trap
O=C(c1ccccc1F)N1CCOCC1 [Compound 2oD] | – | – | more effective than DEET | – | –
O=C(c1cccc(C(F)(F)F)c1)N1CCOCC1 [Compound 3mD] | – | – | more effective than DEET | some fly death | –
O=C(c1ccccc1F)N1CCCCC1 [Compound 2oC] | – | – | more effective than DEET | no fly death | repellency (Drosophila melanogaster [2]; [4]): significant repellency
CN1CCN(C(=O)c2ccccc2C(F)(F)F)CC1 [Compound 3oE] | – | – | more effective than DEET | – | –
COc1cccc(C(=O)N2CCN(C)CC2)c1 [Compound 5mE] | less overall participation | preference for the control trap | – | – | –
Cc1cccc(C(=O)N2CCCCC2)c1 [Compound 1mC] | less overall participation | preference for the control trap | more effective than DEET | no fly death | aversion (no flies entering the single-choice trap) (Drosophila melanogaster [2]; [5]): 100%; ranking among repellents in the one-choice assay (Drosophila melanogaster [2]; [5]): most effective repellents; repellency (Drosophila melanogaster [2]; [4]): significant repellency; average number of flies that chose a trap in 6 hours (Drosophila melanogaster [1]; 25% by weight, 20 flies per assay, 6 hours): 1 flies; interaction with control trap in comparison with repellent-treated trap (Drosophila melanogaster [1]; 25% by weight): more flies interacted with the control trap
Cc1cccc(C(=O)N2CCOCC2)c1 [Compound 1mD] | – | – | – | – | gustatory repellency (preference for repellent-treated sugar versus control-treated sugar) (Drosophila melanogaster [3]): act as a gustatory repellent
COc1cccc(C(=O)N2CCCCC2)c1 [Compound 5mC] | – | – | more effective than DEET | – | gustatory repellency (preference for repellent-treated sugar versus control-treated sugar) (Drosophila melanogaster [3]): act as a gustatory repellent
CN1CCN(C(=O)c2cccc(N)c2)CC1 [Compound 6mE] | – | – | more effective than DEET | – | –
Nc1ccccc1C(=O)N1CCCCC1 [Compound 6oC] | – | – | more effective than DEET | – | –
Cc1ccccc1C(=O)N1CCN(C)CC1 [Compound 1oE] | less overall participation | preference for the control trap | – | – | interaction with control trap in comparison with repellent-treated trap (Drosophila melanogaster [1]; 25% by weight): more flies interacted with the control trap
Cc1ccccc1C(=O)N1CCOCC1 [Compound 1oD] | less overall participation | preference for the control trap | more effective than DEET | some fly death | –
COc1cccc(C(=O)N2CCCC2)c1 [Compound 5mB] | much higher mean participation | significantly greater preference for the control trap | – | – | gustatory repellency compared with DEET (Drosophila melanogaster [3]): worse than DEET; gustatory repellency (preference for repellent-treated sugar versus control-treated sugar) (Drosophila melanogaster [3]): act as a gustatory repellent; also recorded: slightly lower preference
O=C(c1ccccc1C(F)(F)F)N1CCCC1 [Compound 3oB] | – | – | more effective than DEET | – | –
COc1ccccc1C(=O)N1CCCCC1 [Compound 5oC] | – | – | more effective than DEET | – | –
O=C(c1cccc(F)c1)N1CCCCC1 [Compound 2mC] | – | – | more effective than DEET | – | –
O=C(c1cccc(C(F)(F)F)c1)N1CCCC1 [Compound 3mB] | less overall participation | preference for the control trap | more effective than DEET | no fly death | repellency (Drosophila melanogaster [2]; [4]): significant repellency
Nc1cccc(C(=O)N2CCCC2)c1 [Compound 6mB] | higher mean participation | preferred the control trap | – | – | –
O=C(c1cccc([N+](=O)[O-])c1)N1CCCCC1 [Compound 4mC] | – | – | more effective than DEET; also recorded: significantly better than DEET | all the flies were dead | average number of flies that entered the trap (Drosophila melanogaster [2]; one-choice trap, 25% concentration, 20 flies per assay, 6 hours): 5 flies; fly mortality (Drosophila melanogaster [2]; one-choice trap, 25% concentration, exposure in the gas phase): high mortality
CN1CCN(C(=O)c2ccccc2[N+](=O)[O-])CC1 [Compound 4oE] | – | – | more effective than DEET | some fly death | –
O=C(c1cccc([N+](=O)[O-])c1)N1CCOCC1 [Compound 4mD] | – | – | – | – | gustatory repellency (preference for repellent-treated sugar versus control-treated sugar) (Drosophila melanogaster [3]): act as a gustatory repellent
Cc1cccc(C(=O)N2CCN(C)CC2)c1 [Compound 1mE, 1-methyl-4-(3-methylbenzoyl)piperazine] | – | – | more effective than DEET | some fly death | –
O=C(c1cccc(C(F)(F)F)c1)N1CCCCC1 [Compound 3mC] | less overall participation | preference for the control trap | more effective than DEET | no fly death | repellency (Drosophila melanogaster [2]; [4]): significant repellency; gustatory repellency compared with DEET (Drosophila melanogaster [3]): significantly worse than DEET; gustatory repellency (preference for repellent-treated sugar versus control-treated sugar) (Drosophila melanogaster [3]): act as a gustatory repellent
